From US20110086759A1, “CHEMICAL COMPOUNDS” (SYNGENTA CROP PROTECTION, INC., priority 2007, published 2011)

Experiments:
Assay type in all cases: in vivo
Setaria faberi (SETFA) [1] = assay: Pre-emergence biological efficacy, glasshouse pot test; conditions: 312 h
Summary of the method: (§1)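 Damage rated 0–100 (100 = total kill) 13 days post-spray. Pots of standard soil were sown and sprayed after one day with test compound at 1000 or 250 g/ha in acetone/water (50:50) plus 0.5% Tween 20.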

[2] = system: Ipomea hederaceae (IPOHE); assay: as above; conditions: Ipomoea hederacea, 312 h
Summary of the method: as §1

[3] = system: Amaranthus retoflexus (AMARE); assay: as above; conditions: Amaranthus retroflexus, 312 h
Summary of the method: as §1

[4] = system: Echinochloa crus-galli (ECHCG); assay: as above; conditions: 312 h
Summary of the method: as §1

Solanum nigrum (SOLNI) [5] = assay: as above; conditions: 312 h
Summary of the method: as §1

[6] = system: Alopecurus myosuroides (ALOMY); assay: as above; conditions: 312 h
Summary of the method: as §1

Setaria faberi (SETFA) [7] = assay: Post-emergence biological efficacy, glasshouse pot test; conditions: 312 h
Summary of the method: (§2)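 Pot-grown weeds were sprayed 8 days after sowing with test compound in acetone/water (50:50) with 0.5% Tween 20 at 1000 or 250 g/ha. Glasshouse at 24/16° C day/night, 14 h light, 65% humidity. Damage scored 0-100 (100 = total damage) after 13 days.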

[8] = system: Ipomea hederaceae (IPOHE); assay: as above; conditions: Ipomoea hederacea, 312 h
Summary of the method: as §2

[9] = system: Amaranthus retoflexus (AMARE); assay: as above; conditions: Amaranthus retroflexus, 312 h
Summary of the method: as §2

[10] = system: Echinochloa crus-galli (ECHCG); assay: as above; conditions: 312 h
Summary of the method: as §2

Solanum nigrum (SOLNI) [11] = assay: as above; conditions: 312 h
Summary of the method: as §2

[12] = system: Alopecurus myosuroides (ALOMY); assay: as above; conditions: 312 h
Summary of the method: as §2

[13] = pre-emergence, 1,000 g/ha, evaluated after 13 days (100=total damage; 0=no damage), read-out: Percentage damage SETFA
[14] = pre-emergence, 1,000 g/ha, evaluated after 13 days (100=total damage; 0=no damage), read-out: Percentage damage IPOHE
[15] = pre-emergence, 1,000 g/ha, evaluated after 13 days (100=total damage; 0=no damage), read-out: Percentage damage AMARE
[16] = pre-emergence, 1,000 g/ha, evaluated after 13 days (100=total damage; 0=no damage), read-out: Percentage damage ECHCG
[17] = pre-emergence, 1,000 g/ha, evaluated after 13 days (100=total damage; 0=no damage), read-out: Percentage damage SOLNI
[18] = pre-emergence, 1,000 g/ha, evaluated after 13 days (100=total damage; 0=no damage), read-out: Percentage damage ALOMY
[19] = post-emergence, 1,000 g/ha, evaluated after 13 days (100=total damage; 0=no damage), read-out: Percentage damage caused to weed species, SETFA
[20] = post-emergence, 1,000 g/ha, evaluated after 13 days (100=total damage; 0=no damage), read-out: Percentage damage caused to weed species, IPOHE
[21] = post-emergence, 1,000 g/ha, evaluated after 13 days (100=total damage; 0=no damage), read-out: Percentage damage caused to weed species, AMARE
[22] = post-emergence, 1,000 g/ha, evaluated after 13 days (100=total damage; 0=no damage), read-out: Percentage damage caused to weed species, ECHCG
[23] = post-emergence, 1,000 g/ha, evaluated after 13 days (100=total damage; 0=no damage), read-out: Percentage damage caused to weed species, SOLNI
[24] = post-emergence, 1,000 g/ha, evaluated after 13 days (100=total damage; 0=no damage), read-out: Percentage damage caused to weed species, ALOMY
[25] = pre-emergence, rate 1,000 g/ha, evaluated after 13 days (100=total damage to plant; 0=no damage), read-out: Percentage damage caused to weed species, SETFA
[26] = pre-emergence, rate 1,000 g/ha, evaluated after 13 days (100=total damage to plant; 0=no damage), read-out: Percentage damage caused to weed species, IPOHE
[27] = pre-emergence, rate 1,000 g/ha, evaluated after 13 days (100=total damage to plant; 0=no damage), read-out: Percentage damage caused to weed species, AMARE
[28] = pre-emergence, rate 1,000 g/ha, evaluated after 13 days (100=total damage to plant; 0=no damage), read-out: Percentage damage caused to weed species, ECHCG
[29] = pre-emergence, rate 1,000 g/ha, evaluated after 13 days (100=total damage to plant; 0=no damage), read-out: Percentage damage caused to weed species, SOLNI
[30] = pre-emergence, rate 1,000 g/ha, evaluated after 13 days (100=total damage to plant; 0=no damage), read-out: Percentage damage caused to weed species, ALOMY
[31] = Rate 1,000 g/ha, post-emergence spray, evaluated after 13 days (100=total damage to plant; 0=no damage to plant), read-out: Percentage damage caused to weed species, post-emergence, SETFA
[32] = Rate 1,000 g/ha, post-emergence spray, evaluated after 13 days (100=total damage to plant; 0=no damage to plant), read-out: Percentage damage caused to weed species, post-emergence, IPOHE
[33] = Rate 1,000 g/ha, post-emergence spray, evaluated after 13 days (100=total damage to plant; 0=no damage to plant), read-out: Percentage damage caused to weed species, post-emergence, AMARE
[34] = Rate 1,000 g/ha, post-emergence spray, evaluated after 13 days (100=total damage to plant; 0=no damage to plant), read-out: Percentage damage caused to weed species, post-emergence, ECHCG
[35] = Rate 1,000 g/ha, post-emergence spray, evaluated after 13 days (100=total damage to plant; 0=no damage to plant), read-out: Percentage damage caused to weed species, post-emergence, SOLNI
[36] = Rate 1,000 g/ha, post-emergence spray, evaluated after 13 days (100=total damage to plant; 0=no damage to plant), read-out: Percentage damage caused to weed species, post-emergence, ALOMY

Row | SMILES | pest or weed control at 1000 g/ha (Setaria faberi (SETFA) [1]; [13]) [%] | pest or weed control at 1000 g/ha [2, 14] [%] | pest or weed control at 1000 g/ha [3, 15] [%] | pest or weed control at 1000 g/ha [4, 16] [%] | pest or weed control at 1000 g/ha (Solanum nigrum (SOLNI) [5]; [17]) [%] | pest or weed control at 1000 g/ha [6, 18] [%] | pest or weed control at 1000 g/ha (Setaria faberi (SETFA) [7]; [19]) [%] | pest or weed control at 1000 g/ha [8, 20] [%] | pest or weed control at 1000 g/ha (Setaria faberi (SETFA) [1]; [25]) [%] | pest or weed control at 1000 g/ha [2, 26] [%] | pest or weed control at 1000 g/ha [3, 27] [%] | pest or weed control at 1000 g/ha [4, 28] [%] | pest or weed control at 1000 g/ha (Solanum nigrum (SOLNI) [5]; [29]) [%] | pest or weed control at 1000 g/ha [6, 30] [%] | pest or weed control at 1000 g/ha (Setaria faberi (SETFA) [7]; [31]) [%] | pest or weed control at 1000 g/ha [8, 32] [%] | pest or weed control at 1000 g/ha [9, 33] [%] | pest or weed control at 1000 g/ha [10, 34] [%] | pest or weed control at 1000 g/ha (Solanum nigrum (SOLNI) [11]; [35]) [%] | pest or weed control at 1000 g/ha [12, 36] [%] | further results
1 | COC(=O)c1nc(C2CC2)nc(NC2(/C=C/c3ccc(Cl)cc3)CC2)c1Cl [Compound 4-21, 5-Chloro-4-{1-[2-(4-chlorophenyl)-ethenyl]-cyclopropylamino}-2-cyclopropyl-6-methoxycarbonyl-pyrimidine] | 0 | 70 | 20 | 0 | 50 | 0 | 60 | 80 |  |  |  |  |  |  |  |  |  |  |  |  | pest or weed control at 1000 g/ha [9, 21]: 100%; pest or weed control at 1000 g/ha [10, 22]: 50%; pest or weed control at 1000 g/ha (Solanum nigrum (SOLNI) [11]; [23]): 80%; pest or weed control at 1000 g/ha [12, 24]: 20%
2 | COC(=O)c1nc(-c2ccc(F)cc2)nc(NCc2ccco2)c1Cl [Compound 242-48, 5-Chloro-2-(4-fluorophenyl)-4-(furan-2-yl-methyl-amino)-6-methoxy-carbonylpyrimidine] |  |  |  |  |  |  |  |  | 0 | 20 | 100 | 0 | 20 | 10 | 20 | 60 | 100 | 20 | 50 | 20 | 
3 | COC(=O)c1nc(C2CC2)nc(NCc2cccnc2)c1Cl [Compound 4-156, 5-Chloro-2-cyclopropyl-6-methoxycarbonyl-4-(pyrid-3-ylmethyl-amino)pyrimidine] | 0 | 80 | 50 | 0 | 30 | 0 | 70 | 70 |  |  |  |  |  |  |  |  |  |  |  |  | pest or weed control at 1000 g/ha [9, 21]: 100%; pest or weed control at 1000 g/ha [10, 22]: 50%; pest or weed control at 1000 g/ha (Solanum nigrum (SOLNI) [11]; [23]): 90%; pest or weed control at 1000 g/ha [12, 24]: 30%
4 | COC(=O)c1nc(-c2ccc(Cl)cc2)nc(NC2CC2)c1Cl [Compound 40-1, 5-Chloro-2-(4-chloro-phenyl)-4-cyclo-propylamino-6-methoxycarbonyl-pyrimidine] |  |  |  |  |  |  |  |  | 30 | 30 | 100 | 50 | 40 | 40 | 90 | 70 | 100 | 50 | 100 | 40 | 
5 | COC(=O)c1nc(C2CC2)nc(N(C)CC2OCCO2)c1Cl [Compound 5-54, 5-Chloro-2-cyclopropyl-4-[N-(1,3-dioxolan-2-yl)methyl-N-methyl-amino]-6-methoxycarbonyl-pyrimidine] |  |  |  |  |  |  |  |  | 0 | 30 | 50 | 0 | 0 | 0 | 30 | 60 | 80 | 0 | 30 | 0 | 
6 | COC(=O)c1nc(C2CC2)nc(NCc2ccc(N)cc2)c1Cl [Compound 4-86, 4-(4-Aminophenyl-methylamino)-5-chloro-2-cyclopropyl-6-methoxycarbonyl-pyrimidine] | 80 | 100 | 100 | 70 | 100 | 60 | 90 | 100 |  |  |  |  |  |  |  |  |  |  |  |  | pest or weed control at 1000 g/ha [9, 21]: 100%; pest or weed control at 1000 g/ha [10, 22]: 70%; pest or weed control at 1000 g/ha (Solanum nigrum (SOLNI) [11]; [23]): 100%; pest or weed control at 1000 g/ha [12, 24]: 50%
7 | COC(=O)c1nc(-c2ccc(OC)c(Cl)c2)nc(NCc2ccco2)c1Cl [Compound 254-48, 5-Chloro-2-(3-chloro-4-methoxyphenyl)-4-(furan-2-yl-methyl-amino)-6-methoxy-carbonylpyrimidine] |  |  |  |  |  |  |  |  | 0 | 0 | 0 | 0 | 0 | 0 | 0 | 10 | 20 | 0 | 30 | 0 | 
8 | CCN(c1nc(C2CC2)nc(C(=O)OC)c1Cl)C1CCCCC1 [Compound 6-35, 5-Chloro-4-(N-cyclohexyl-N-ethyl-amino)-2-cyclo-propyl-6-methoxy-carbonylpyrimidine] |  |  |  |  |  |  |  |  | 0 | 30 | 100 | 0 | 60 | 10 | 40 | 80 | 70 | 0 | 70 | 0 | 
9 | COC(=O)c1nc(-c2ccc(C(F)(F)F)cc2C(F)(F)F)nc(NCc2ccco2)c1Cl [Compound 234-48, 2-[2,4-Bis(trifluoro-methyl)phenyl]-5-chloro-4-(furan-2-yl-methylamino)-6-methoxycarbonyl-pyrimidine] |  |  |  |  |  |  |  |  | 10 | 100 | 90 | 10 | 80 | 20 | 40 | 100 | 100 | 30 | 80 | 10 | 
